# Measurements published in patent US4009273A, “Substituted 10,11-dihydro-5,10-imino-[5H] dibenzo (a,d)-cycloheptene” (priority 1972, dated 1977).
# Assays:
# [1] = tested on: amphetamine deaths; assay: Amphetamine toxicity in mice; type: in vivo, mice (female); conditions: for ratio of number of dead animals to number of starting animals: 1 h before 15 mg/kg amphetamine, mortality at 4 h
# Protocol: The test was effected on group of 10 female mice weighing between 18 and 22 g kept at 27° C for the duration of the test. The test products were intraperitoneally administered in different doses in a volume of 0.01 ml /g of mouse. One hour later, the mice received an injection of 15 mg/kg of a solution of 1.5 mg of amphetamine per ml of physiological serum. The mortality 4 hours after the amphetamine injection was determined and the results were expressed as a ratio of number of dead animals to number of starting animals.
# [2] = Acute toxicity; conditions: mouse, in vivo, ip, Swiss mice, observed for a week
# Protocol: The acute toxicity was determined on groups of Swiss mice weighing 18 to 22 g and the test products were administered intraperitoneally in increasing doses and the animals were kept under observation for a week.
# [3] = tested on: pentamethylenetetrazol convulsions; assay: Anticonvulsant effect (pentamethylenetetrazol perfusion); type: in vivo, mice (female); conditions: 1 h before perfusion
# Protocol: The anticonvulsant activity of the compounds was determined on groups of 10 female mice with intraperitoneal administration of the test compounds in acid solution at different doses and the control group received only the solvent. One hour after the injection, the mice were perfused with a solution of pentamethylenetetrazol in physiological serum at a concentration of 3 mg/ml. The perfusion was intraveinous at a rate of 1 ml per minute and in the course of the perfusion, the progress of introxication was characterized by the following 3 criteria:
# a. Threshold of convulsant effect (myoclonia of the ears)
# b. Crisis of clonic convulsions
# c. Tonic convulsion with apnea and generally followed by death.
# [4] = tested on: amytal sleeping time; assay: Potentialization of sleeping time (amytal); type: in vivo, mice (female); conditions: 1 h before 80 mg/kg amytal i.v.
# Protocol: The potentialization of sleeping time was determined with a test using amytal [5-ethyl-5-isoamyl-barbituric acid] in which groups of female mice weighing between 18 and 22 g were kept at 25° C for the duration of the test. The test products were administered intraperitoneally at different doses one hour before intraveinous injection of 80 mg/kg of amytal and the sleeping time was noted which is the time while the reflux of straightening in the mice was negative.
smiles,measurement,setting,value
"c1ccc2c(c1)CC1NC2c2ccccc21 (stereo not drawn) [Example 1, 10,11-dihydro-5,10-imino-[5H]-dibenzo (a,d) cycloheptene dl]",ratio of number of dead animals to number of starting animals,[1]; 1 mg/Kg i.p.,10/10
same,ratio of number of dead animals to number of starting animals,[1]; 2 mg/Kg i.p.,5/10
same,ratio of number of dead animals to number of starting animals,[1]; 200γ/Kg i.p.,9/10
same,ratio of number of dead animals to number of starting animals,[1]; 500γ/Kg i.p.,9/10
same,LD50 at 168 h,[2],150 mg/kg
"O=C(Oc1ccccc1[N+](=O)[O-])N1C2Cc3ccccc3C1c1ccccc12 (stereo not drawn) [Example 8, 12-(o-nitrophenoxycarbonyl)-10,11-dihydro-5,10-imino-[5H]-dibenzo (a,d) cycloheptene dl]",LD50 at 168 h,[2],> 1000 mg/kg
"CP(C)(=O)CN1C2Cc3ccccc3C1c1ccccc12 (stereo not drawn) [Example 9, 12-dimethylphosphorosomethyl-10.11-dihydro-5,10-imino-[5H]-dibenzo (a,d) cycloheptene dl]",LD50 at 168 h,[2],350 mg/kg
"CC(=O)N1C2Cc3ccccc3C1c1ccccc12 (stereo not drawn) [Example 10, 12-acetyl-10,11-dihydro-5,10-imino-5H]-dibenzo (a,d) cycloheptene dl]",LD50 at 168 h,[2],> 500 mg/kg
"NC(=O)N1C2Cc3ccccc3C1c1ccccc12 (stereo not drawn) [Example 13, 12-carbamoyl-10,11-dihydro-5,10-imino-[5H]-dibenzo (a,d) cycloheptene dl]",LD50 at 168 h,[2],1000 mg/kg
"CN1C2Cc3ccccc3C1c1ccccc12 (stereo not drawn) [Example 15, 12-methyl-10,11-dihydro-5,10-imino-[5H]-dibenzo (a,d) cycloheptene dl]",ratio of number of dead animals to number of starting animals,[1]; 1 mg/Kg i.p.,6/10
same,ratio of number of dead animals to number of starting animals,[1]; 2 mg/Kg i.p.,1/10
same,ratio of number of dead animals to number of starting animals,[1]; 5 mg/Kg i.p.,0/10
same,ratio of number of dead animals to number of starting animals,[1]; 10 mg/Kg i.p.,0/10
same,ratio of number of dead animals to number of starting animals,[1]; 200γ/Kg i.p.,10/10
same,ratio of number of dead animals to number of starting animals,[1]; 500γ/Kg i.p.,8/10
same,ED50,"[1]; Mus musculus, ip, 4 h, i.p., mice, read-out: DA50 (dose which reduced by half the amphetamine deaths)",1 mg/kg
same,"Dose of pentamethylenetetrazol, Clonic Crisis",[3]; 1 mg/Kg i.p.,44.0 mg/kg
same,"Dose of pentamethylenetetrazol, Myoclonia",[3]; 1 mg/Kg i.p.,38.1 mg/kg
same,"Dose of pentamethylenetetrazol, Tonic Crisis",[3]; 1 mg/Kg i.p.,182.7 mg/kg
same,"Dose of pentamethylenetetrazol, Clonic Crisis",[3]; 2 mg/Kg i.p.,52.9 mg/kg
same,"Dose of pentamethylenetetrazol, Myoclonia",[3]; 2 mg/Kg i.p.,46.7 mg/kg
same,"Dose of pentamethylenetetrazol, Tonic Crisis",[3]; 2 mg/Kg i.p.,231.8 mg/kg
same,"Dose of pentamethylenetetrazol, Clonic Crisis",[3]; 200γ/Kg i.p.,43.0 mg/kg
same,"Dose of pentamethylenetetrazol, Myoclonia",[3]; 200γ/Kg i.p.,38.1 mg/kg
same,"Dose of pentamethylenetetrazol, Tonic Crisis",[3]; 200γ/Kg i.p.,122.7 mg/kg
same,"Dose of pentamethylenetetrazol, Clonic Crisis",[3]; 500γ/Kg i.p.,45.9 mg/kg
same,"Dose of pentamethylenetetrazol, Myoclonia",[3]; 500γ/Kg i.p.,41.1 mg/kg
same,"Dose of pentamethylenetetrazol, Tonic Crisis",[3]; 500γ/Kg i.p.,134.9 mg/kg
same,average sleeping time,[4]; 0.5 mg/Kg i.p.,33.9 min
same,average sleeping time,[4]; 1 mg/Kg i.p.,32.9 min
same,average sleeping time,[4]; 2 mg/Kg i.p.,30.6 min
same,average sleeping time,[4]; 5 mg/Kg i.p.,42.9 min
same,average sleeping time,[4]; 10 mg/Kg i.p.,78.6 min
same,LD50 at 168 h,[2],175 mg/kg
"C[N+]1(C)C2Cc3ccccc3C1c1ccccc12 (stereo not drawn) [Example 16, 12-methyl-10,11-dihydro-5,10-imino-[5H]-dibenzo (a,d) cycloheptene dl iodomethylate]",LD50 at 168 h,[2],> 200 mg/kg
"CCOC(=O)N1C2Cc3ccccc3C1c1ccccc12 (stereo not drawn) [Example 17, 12-carbethoxy-10,11-dihydro-5,10imino-[5H]-dibenzo (a,d) cycloheptene dl]",LD50 at 168 h,[2],1000 mg/kg
"C=CCN1C2Cc3ccccc3C1c1ccccc12 (stereo not drawn) [Example 19, 12-allyl-10,11-dihydro-5,10-imino-[5H]-dibenzo (a,d) cyclo-heptene dl]","Dose of pentamethylenetetrazol, Clonic Crisis",[3]; 2 mg/Kg i.p.,50.0 mg/kg
same,"Dose of pentamethylenetetrazol, Myoclonia",[3]; 2 mg/Kg i.p.,44.8 mg/kg
same,"Dose of pentamethylenetetrazol, Tonic Crisis",[3]; 2 mg/Kg i.p.,150.8 mg/kg
same,"Dose of pentamethylenetetrazol, Clonic Crisis",[3]; 5 mg/Kg i.p.,49.8 mg/kg
same,"Dose of pentamethylenetetrazol, Myoclonia",[3]; 5 mg/Kg i.p.,44.5 mg/kg
same,"Dose of pentamethylenetetrazol, Tonic Crisis",[3]; 5 mg/Kg i.p.,136.0 mg/kg
same,"Dose of pentamethylenetetrazol, Clonic Crisis",[3]; 10 mg/Kg i.p.,52.4 mg/kg
same,"Dose of pentamethylenetetrazol, Myoclonia",[3]; 10 mg/Kg i.p.,47.4 mg/kg
same,"Dose of pentamethylenetetrazol, Tonic Crisis",[3]; 10 mg/Kg i.p.,241.9 mg/kg
same,"Dose of pentamethylenetetrazol, Clonic Crisis",[3]; 20 mg/Kg i.p.,54.7 mg/kg
same,"Dose of pentamethylenetetrazol, Myoclonia",[3]; 20 mg/Kg i.p.,49.2 mg/kg
same,"Dose of pentamethylenetetrazol, Tonic Crisis",[3]; 20 mg/Kg i.p.,271.8 mg/kg
same,average sleeping time,[4]; 2 mg/Kg i.p.,37.1 min
same,average sleeping time,[4]; 5 mg/Kg i.p.,65.1 min
same,average sleeping time,[4]; 10 mg/Kg i.p.,71.7 min
same,average sleeping time,[4]; 20 mg/Kg i.p.,> 120 min
same,LD50 at 168 h,[2],350 mg/kg
"C#CCN1C2Cc3ccccc3C1c1ccccc12 (stereo not drawn) [Example 20, 12-propargyl-10,11-dihydro-5,10-imino-[5H]-dibenzo (a,d) cycloheptene dl]",ratio of number of dead animals to number of starting animals,[1]; 2 mg/Kg i.p.,9/10
same,ratio of number of dead animals to number of starting animals,[1]; 5 mg/Kg i.p.,9/10
same,ratio of number of dead animals to number of starting animals,[1]; 10 mg/Kg i.p.,7/10
same,ratio of number of dead animals to number of starting animals,[1]; 20 mg/Kg i.p.,1/10
same,"Dose of pentamethylenetetrazol, Clonic Crisis",[3]; 0.5 mg/Kg i.p.,49.1 mg/kg
same,"Dose of pentamethylenetetrazol, Myoclonia",[3]; 0.5 mg/Kg i.p.,44.2 mg/kg
same,"Dose of pentamethylenetetrazol, Tonic Crisis",[3]; 0.5 mg/Kg i.p.,140.7 mg/kg
same,"Dose of pentamethylenetetrazol, Clonic Crisis",[3]; 1 mg/Kg i.p.,46.7 mg/kg
same,"Dose of pentamethylenetetrazol, Myoclonia",[3]; 1 mg/Kg i.p.,41.9 mg/kg
same,"Dose of pentamethylenetetrazol, Tonic Crisis",[3]; 1 mg/Kg i.p.,146.4 mg/kg
same,"Dose of pentamethylenetetrazol, Clonic Crisis",[3]; 2 mg/Kg i.p.,46.2 mg/kg
same,"Dose of pentamethylenetetrazol, Myoclonia",[3]; 2 mg/Kg i.p.,41.2 mg/kg
same,"Dose of pentamethylenetetrazol, Tonic Crisis",[3]; 2 mg/Kg i.p.,168.5 mg/kg
same,"Dose of pentamethylenetetrazol, Clonic Crisis",[3]; 5 mg/Kg i.p.,49.0 mg/kg
same,"Dose of pentamethylenetetrazol, Myoclonia",[3]; 5 mg/Kg i.p.,43.9 mg/kg
same,"Dose of pentamethylenetetrazol, Tonic Crisis",[3]; 5 mg/Kg i.p.,221.7 mg/kg
same,average sleeping time,[4]; 0.5 mg/Kg i.p.,41.8 min
same,average sleeping time,[4]; 1 mg/Kg i.p.,46.5 min
same,average sleeping time,[4]; 2 mg/Kg i.p.,49.4 min
same,average sleeping time,[4]; 5 mg/Kg i.p.,64.9 min
"c1ccc(CN2C3Cc4ccccc4C2c2ccccc23)cc1 (stereo not drawn) [Example 23, 12-benzyl-10,11-dihydro-5,10-imino-[5H]-dibenzo (a,d) cycloheptene dl]",LD50 at 168 h,[2],> 400 mg/kg
"CCCN1C2Cc3ccccc3C1c1ccccc12 (stereo not drawn) [Example 24, 12-n-propyl-10,11-dihydro-5,10-imino[5H]-dibenzo (a,d) cycloheptene dl]",ratio of number of dead animals to number of starting animals,[1]; 5 mg/Kg i.p.,10/10
same,ratio of number of dead animals to number of starting animals,[1]; 10 mg/Kg i.p.,9/10
same,ratio of number of dead animals to number of starting animals,[1]; 20 mg/Kg i.p.,3/10
same,"Dose of pentamethylenetetrazol, Clonic Crisis",[3]; 1 mg/Kg i.p.,61.8 mg/kg
same,"Dose of pentamethylenetetrazol, Myoclonia",[3]; 1 mg/Kg i.p.,54.2 mg/kg
same,"Dose of pentamethylenetetrazol, Tonic Crisis",[3]; 1 mg/Kg i.p.,170.3 mg/kg
same,"Dose of pentamethylenetetrazol, Clonic Crisis",[3]; 2 mg/Kg i.p.,57.3 mg/kg
same,"Dose of pentamethylenetetrazol, Myoclonia",[3]; 2 mg/Kg i.p.,50.4 mg/kg
same,"Dose of pentamethylenetetrazol, Tonic Crisis",[3]; 2 mg/Kg i.p.,225.8 mg/kg
same,"Dose of pentamethylenetetrazol, Clonic Crisis",[3]; 5 mg/Kg i.p.,60.0 mg/kg
same,"Dose of pentamethylenetetrazol, Myoclonia",[3]; 5 mg/Kg i.p.,51.4 mg/kg
same,"Dose of pentamethylenetetrazol, Tonic Crisis",[3]; 5 mg/Kg i.p.,265.2 mg/kg
same,"Dose of pentamethylenetetrazol, Clonic Crisis",[3]; 10 mg/Kg i.p.,78.4 mg/kg
same,"Dose of pentamethylenetetrazol, Myoclonia",[3]; 10 mg/Kg i.p.,57.7 mg/kg
same,"Dose of pentamethylenetetrazol, Tonic Crisis",[3]; 10 mg/Kg i.p.,275.9 mg/kg
same,average sleeping time,[4]; 2 mg/Kg i.p.,38.6 min
same,average sleeping time,[4]; 5 mg/Kg i.p.,42.2 min
same,average sleeping time,[4]; 10 mg/Kg i.p.,65.1 min
same,average sleeping time,[4]; 20 mg/Kg i.p.,103.7 min
same,LD50 at 168 h,[2],~250 mg/kg
"CNCC(=O)N1C2Cc3ccccc3C1c1ccccc12 (stereo not drawn) [Example 25, 12-(methylaminoacetyl)-10,11-dihydro-5,10-imino-[5H]-dibenzo (a,d) cycloheptene dl]",LD50 at 168 h,[2],~300 mg/kg
